Consider 19 molecules from US20120045393A1 (priority 2009, published 2012).

As usually defined, the EC50 is the concentration needed to bring the measured effect to its halfway point. Read a low EC50 as higher potency in that assay.

Non-standard residues stand in square brackets, D forms with d. Residues, ends and D or L forms follow the SMILES beside them. *: point of attachment. DOTA = O=C(O)CN1CCN(CC(=O)O)CCN(CC(=O)*)CCN(CC(=O)O)CC1; Bpa = N[C@@H](Cc1ccc(C(=O)c2ccccc2)cc1)C(=O)O; Ala(4-thiazolyl) = N[C@@H](Cc1cscn1)C(=O)O; d2Nal = N[C@H](Cc1ccc2ccccc2c1)C(=O)O; Nicotinoyl = O=C(c1cccnc1)*; azaGly = NNC(=O)O; Sar = CNCC(=O)O
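Also: Cell-associated radioactivity on confluent EFO-27 monolayers in 96-well plates, measured by microplate scintillation counting.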

The first assay has as its system LHRH binding sites on human ovarian cancer cells (EFO-27).
Settings: not given
In the case of `N=C(N)NCCC[C@H](NC(=O)[C@H](N)Cc1ccc2ccccc2c1)C(=O)N[C@@H](Cc1c[nH]c2ccccc12)C(=O)N[C@@H](CO)C(=O)N[C@@H](Cc1c[nH]cn1)C(=O)N[C@H](CCCNC(=N)N)C(=O)N[C@@H](Cc1c[nH]c2ccccc12)C(=O)N[C@@H](Cc1ccc(C(=O)c2ccccc2)cc1)C(=O)N1CCC[C@H]1C(=O)NCCOCCNC(=O)CN1CCN(CC(=O)O)CCN(CC(=O)O)CCN(CC(=O)O)CC1` [BRU-2991], the half-maximal effective concentration (EC50) is at most 200 nM.

With `N=C(N)NCCC[C@H](NC(=O)[C@@H](Cc1ccc2ccccc2c1)NC(=O)CN1CCN(CC(=O)O)CCN(CC(=O)O)CCN(CC(=O)O)CC1)C(=O)N[C@@H](CCC(=O)O)C(=O)N[C@@H](CO)C(=O)N[C@@H](Cc1c[nH]cn1)C(=O)N[C@H](CCCNC(=N)N)C(=O)N[C@@H](Cc1c[nH]c2ccccc12)C(=O)N[C@@H](Cc1ccc(C(=O)c2ccccc2)cc1)C(=O)N1CCC[C@H]1C(=O)NNC(N)=O` [BRU-3110] ({DOTA}-[d2Nal]RESH[dR]W[Bpa]P[azaGly]-NH2; C-terminus assumed), a half-maximal response (EC50) required 2600 nM.

With `CN(CC(=O)N[C@@H](Cc1c[nH]cn1)C(=O)N[C@@H](Cc1c[nH]c2ccccc12)C(=O)N[C@@H](CO)C(=O)N[C@@H](Cc1cscn1)C(=O)N[C@H](CCCNC(=N)N)C(=O)N[C@@H](Cc1c[nH]c2ccccc12)C(=O)N[C@@H](Cc1ccc(C(=O)c2ccccc2)cc1)C(=O)N1CCC[C@H]1C(=O)NNC(N)=O)C(=O)CN1CCN(CC(=O)O)CCN(CC(=O)O)CCN(CC(=O)O)CC1` [BRU-2769] ({DOTA}-[Sar]HWS[Ala(4-thiazolyl)][dR]W[Bpa]P[azaGly]-NH2; C-terminus assumed), the EC50 came to 7340 nM.

Molecule `COc1ccccc1CNC(=O)[C@@H]1CCCN1C(=O)[C@H](Cc1ccc(C(=O)c2ccccc2)cc1)NC(=O)[C@H](Cc1c[nH]c2ccccc12)NC(=O)[C@@H](CCCNC(=N)N)NC(=O)[C@H](Cc1c[nH]cn1)NC(=O)[C@H](CO)NC(=O)[C@H](Cc1c[nH]c2ccccc12)NC(=O)[C@H](CCCNC(=N)N)NC(=O)[C@@H](Cc1ccc2ccccc2c1)NC(=O)CN1CCN(CC(=O)O)CCN(CC(=O)O)CCN(CC(=O)O)CC1` [compound 3020] had a concentration giving a half-maximal response (EC50) of 450 nM.

Turning to `CN(CC(=O)N[C@@H](Cc1cscn1)C(=O)N[C@@H](Cc1c[nH]c2ccccc12)C(=O)N[C@@H](CO)C(=O)N[C@@H](Cc1cscn1)C(=O)N[C@H](CCCNC(=N)N)C(=O)N[C@@H](Cc1c[nH]c2ccccc12)C(=O)N[C@@H](Cc1ccc(C(=O)c2ccccc2)cc1)C(=O)N1CCC[C@H]1C(=O)NNC(N)=O)C(=O)CN1CCN(CC(=O)O)CCN(CC(=O)O)CCN(CC(=O)O)CC1` [BRU-2762] ({DOTA}-[Sar][Ala(4-thiazolyl)]WS[Ala(4-thiazolyl)][dR]W[Bpa]P[azaGly]-NH2; C-terminus assumed), the response was half-maximal at 15000 nM (EC50).

Consider `CNCC(=O)N[C@@H](CCCNC(=N)N)C(=O)N[C@@H](Cc1c[nH]c2ccccc12)C(=O)N[C@@H](CO)C(=O)N[C@@H](Cc1c[nH]cn1)C(=O)N[C@H](CCCNC(=N)N)C(=O)N[C@@H](Cc1c[nH]c2ccccc12)C(=O)N[C@@H](Cc1ccc(C(=O)c2ccccc2)cc1)C(=O)N1CCC[C@H]1C(=O)NCCOCCOCCNC(=O)CN1CCN(CC(=O)O)CCN(CC(=O)O)CCN(CC(=O)O)CC1` [compound 3043], for which the EC50 amounted to 330 ± 180 nM.

Molecule `N=C(N)NCCC[C@@H](NC(=O)[C@H](Cc1c[nH]cn1)NC(=O)[C@H](CO)NC(=O)[C@H](Cc1c[nH]c2ccccc12)NC(=O)[C@H](Cc1c[nH]cn1)NC(=O)[C@H](Cc1ccc2ccccc2c1)NC(=O)CN1CCN(CC(=O)O)CCN(CC(=O)O)CCN(CC(=O)O)CC1)C(=O)N[C@@H](Cc1c[nH]c2ccccc12)C(=O)N[C@@H](Cc1ccc(C(=O)c2ccccc2)cc1)C(=O)N1CCC[C@H]1C(=O)NNC(N)=O` [BRU-2809] yielded a concentration giving a half-maximal response (EC50) of 3540 nM.

The molecule `N=C(N)NCCC[C@H](NC(=O)[C@@H](Cc1ccc2ccccc2c1)NC(=O)CN1CCN(CC(=O)O)CCN(CC(=O)O)CCN(CC(=O)O)CC1)C(=O)N[C@@H](Cc1c[nH]c2ccccc12)C(=O)N[C@@H](CO)C(=O)N[C@@H](Cc1c[nH]cn1)C(=O)N[C@H](CCCNC(=N)N)C(=O)N[C@@H](Cc1c[nH]c2ccccc12)C(=O)O` [BRU-3046, DO3A10CM-Dna12-Arg-Trp-Ser-His-Darg-Trp-OH] (HELM PEPTIDE1{[O=C(O)CN1CCN(CC(=O)O)CCN(CC(=O)[*:2])CCN(CC(=O)O)CC1].[O=C([C@@H](Cc1ccc2ccccc2c1)N[*:1])[*:2]].R.W.S.H.[dR].W}$$$$V2.0) gave a 50% effective concentration (EC50) of 15800 nM.

Turning to `CNCC(=O)N[C@@H](CCCNC(=N)N)C(=O)N[C@@H](Cc1c[nH]c2ccccc12)C(=O)N[C@@H](CO)C(=O)N[C@@H](Cc1c[nH]cn1)C(=O)N[C@H](CCCNC(=N)N)C(=O)N[C@@H](Cc1c[nH]c2ccccc12)C(=O)N[C@@H](Cc1ccc(C(=O)c2ccccc2)cc1)C(=O)N1CCC[C@H]1C(=O)NCCCN1CCN(CCCNC(=O)CN2CCN(CC(=O)O)CCN(CC(=O)O)CCN(CC(=O)O)CC2)CC1` [BRU-3044], the EC50 was 230 to 500 nM.

For `N=C(N)NCCC[C@H](NC(=O)[C@@H](Cc1ccc2ccccc2c1)NC(=O)CN1CCN(CC(=O)O)CCN(CC(=O)O)CCN(CC(=O)O)CC1)C(=O)N[C@@H](Cc1c[nH]c2ccccc12)C(=O)N[C@@H](CO)C(=O)N[C@@H](Cc1c[nH]cn1)C(=O)N[C@H](CCCNC(=N)N)C(=O)N[C@@H](Cc1c[nH]c2ccccc12)C(=O)N[C@@H](Cc1ccc(C(=O)c2ccccc2)cc1)C(=O)N1CCC[C@H]1C(=O)NCCOCCNC(=N)N` [compound 2985], the concentration for a half-maximal effect (EC50) was 460 nM.

`N=C(N)NCCC[C@H](NC(=O)[C@@H](Cc1ccc2ccccc2c1)NC(=O)CN1CCN(CC(=O)O)CCN(CC(=O)O)CCN(CC(=O)O)CC1)C(=O)N[C@@H](Cc1c[nH]c2ccccc12)C(=O)N[C@@H](CO)C(=O)N[C@@H](Cc1cscn1)C(=O)N[C@H](CCCNC(=N)N)C(=O)N[C@@H](Cc1c[nH]c2ccccc12)C(=O)N[C@@H](Cc1ccc(C(=O)c2ccccc2)cc1)C(=O)N1CCC[C@H]1C(=O)NNC(N)=O` [compound 2958]: the concentration giving a half-maximal response (EC50) turned out to be 710 nM.

As for `CN(CC(=O)N[C@@H](Cc1c[nH]cn1)C(=O)N[C@@H](Cc1c[nH]c2ccccc12)C(=O)N[C@@H](CO)C(=O)N[C@@H](Cc1c[nH]cn1)C(=O)N[C@H](CCCNC(=N)N)C(=O)N[C@@H](Cc1c[nH]c2ccccc12)C(=O)N[C@@H](Cc1c[nH]cn1)C(=O)N1CCC[C@H]1C(=O)NNC(N)=O)C(=O)CN1CCN(CC(=O)O)CCN(CC(=O)O)CCN(CC(=O)O)CC1` [BRU-2763] (HELM PEPTIDE1{[O=C(O)CN1CCN(CC(=O)O)CCN(CC(=O)[*:2])CCN(CC(=O)O)CC1].[Sar].H.W.S.H.[dR].W.H.P.[O=C(NN[*:1])[*:2]].[am]}$$$$V2.0), the EC50 is 13600 nM.

The assay is the same for the next values; noted with them: EFO-27 cells, competition with [125I-Tyr8]BRU-2477, 90 min.
Molecule `CCN=C(NCC)NCCCC[C@@H](NC(=O)[C@H](Cc1c[nH]cn1)NC(=O)[C@H](CO)NC(=O)[C@H](Cc1c[nH]c2ccccc12)NC(=O)[C@H](Cc1c[nH]cn1)NC(=O)CN(C)C(=O)CN1CCN(CC(=O)O)CCN(CC(=O)O)CCN(CC(=O)O)CC1)C(=O)N[C@@H](Cc1c[nH]c2ccccc12)C(=O)N[C@@H](Cc1ccc(C(=O)c2ccccc2)cc1)C(=O)N1CCC[C@H]1C(=O)NNC(N)=O` [BRU-2880] gave an EC50 of 8020 nM.

In the case of `CN(CC(=O)N[C@@H](Cc1c[nH]cn1)C(=O)N[C@@H](Cc1c[nH]c2ccccc12)C(=O)N[C@@H](CO)C(=O)N[C@@H](Cc1c[nH]cn1)C(=O)N[C@H](CCCCNC(=O)c1cccnc1)C(=O)N[C@@H](Cc1c[nH]c2ccccc12)C(=O)N[C@@H](Cc1ccc(C(=O)c2ccccc2)cc1)C(=O)N1CCC[C@H]1C(=O)NNC(N)=O)C(=O)CN1CCN(CC(=O)O)CCN(CC(=O)O)CCN(CC(=O)O)CC1` [compound 2671] ({DOTA}-[Sar]HWSH[dK](Nicotinoyl)W[Bpa]P[azaGly]-NH2), the response was half-maximal at 7200 nM (EC50).

The same assay, now with this note: Table 5: modifications of amino acids at positions 1 and 2; in vitro binding on EFO-27 cells.
As to `CN(CC(=O)N[C@@H](CCCNC(=N)N)C(=O)N[C@@H](Cc1c[nH]c2ccccc12)C(=O)N[C@@H](CO)C(=O)N[C@@H](Cc1c[nH]cn1)C(=O)N[C@H](CCCNC(=N)N)C(=O)N[C@@H](Cc1c[nH]c2ccccc12)C(=O)N[C@@H](Cc1ccc(C(=O)c2ccccc2)cc1)C(=O)N1CCC[C@H]1C(=O)NNC(N)=O)C(=O)CN1CCN(CC(=O)O)CCN(CC(=O)O)CCN(CC(=O)O)CC1` [BRU-2817], the midpoint of the response, the EC50, lay at 1700 nM.

Turning to `N=C(N)NCCC[C@@H](NC(=O)[C@H](Cc1c[nH]cn1)NC(=O)[C@H](CO)NC(=O)[C@H](Cc1c[nH]c2ccccc12)NC(=O)[C@H](Cc1c[nH]cn1)NC(=O)CNC(=O)CNC(=O)CN1CCN(CC(=O)O)CCN(CC(=O)O)CCN(CC(=O)O)CC1)C(=O)N[C@@H](Cc1c[nH]c2ccccc12)C(=O)N[C@@H](Cc1ccc(C(=O)c2ccccc2)cc1)C(=O)N1CCC[C@H]1C(=O)NNC(N)=O` [BRU-2795], the EC50 came out at 1370 nM.

`CN(CC(=O)N[C@@H](CCCCN)C(=O)N[C@@H](Cc1c[nH]c2ccccc12)C(=O)N[C@@H](CO)C(=O)N[C@@H](Cc1c[nH]cn1)C(=O)N[C@H](CCCNC(=N)N)C(=O)N[C@@H](Cc1c[nH]c2ccccc12)C(=O)N[C@@H](Cc1ccc(C(=O)c2ccccc2)cc1)C(=O)N1CCC[C@H]1C(=O)NNC(N)=O)C(=O)CN1CCN(CC(=O)O)CCN(CC(=O)O)CCN(CC(=O)O)CC1` [BRU-2871] ({DOTA}-[Sar]KWSH[dR]W[Bpa]P[azaGly]-NH2) registered an EC50 of 10000 nM.

`CN(CC(=O)N[C@@H](Cc1ccc(O)cc1)C(=O)N[C@@H](Cc1c[nH]c2ccccc12)C(=O)N[C@@H](CO)C(=O)N[C@@H](Cc1c[nH]cn1)C(=O)N[C@H](CCCNC(=N)N)C(=O)N[C@@H](Cc1c[nH]c2ccccc12)C(=O)N[C@@H](Cc1ccc(C(=O)c2ccccc2)cc1)C(=O)N1CCC[C@H]1C(=O)NNC(N)=O)C(=O)CN1CCN(CC(=O)O)CCN(CC(=O)O)CCN(CC(=O)O)CC1` [BRU-2814] ({DOTA}-[Sar]YWSH[dR]W[Bpa]P[azaGly]-NH2) returned an EC50 of 2240 nM.

The assay is the same for the next values; noted with them: Table 8: N-substituted amino acid at position 1 and Gly as linker; in vitro binding on EFO-27 cells.
`COCCN(CC(=O)N[C@@H](Cc1c[nH]cn1)C(=O)N[C@@H](Cc1c[nH]c2ccccc12)C(=O)N[C@@H](CO)C(=O)N[C@@H](Cc1c[nH]cn1)C(=O)N[C@H](CCCNC(=N)N)C(=O)N[C@@H](Cc1c[nH]c2ccccc12)C(=O)N[C@@H](Cc1ccc(C(=O)c2ccccc2)cc1)C(=O)N1CCC[C@H]1C(=O)NNC(N)=O)C(=O)CNC(=O)CN1CCN(CC(=O)O)CCN(CC(=O)O)CCN(CC(=O)O)CC1` [compound 2796] yielded an EC50 of 340 nM.

The same assay, now with this note: ratio of EC50 to BRU-2813 (EC50=0.33 μM).
Regarding `N=C(N)NCCC[C@H](NC(=O)[C@@H](Cc1ccc2ccccc2c1)NC(=O)CN1CCN(CC(=O)O)CCN(CC(=O)O)CCN(CC(=O)O)CC1)C(=O)N[C@@H](CCC(=O)O)C(=O)N[C@@H](CO)C(=O)N[C@@H](Cc1c[nH]cn1)C(=O)N[C@H](CCCNC(=N)N)C(=O)N[C@@H](Cc1c[nH]c2ccccc12)C(=O)N[C@@H](Cc1ccc(C(=O)c2ccccc2)cc1)C(=O)N1CCC[C@H]1C(=O)NNC(N)=O` [BRU-3110] ({DOTA}-[d2Nal]RESH[dR]W[Bpa]P[azaGly]-NH2; C-terminus assumed), the “binding potency, times lower than BRU-2813” value is given as around 8.
